Measured values taken from patent publication US20230312587A1, “PTERIDINONE COMPOUNDS AND USES THEREOF” (Vertex Pharmaceutical Incorporated, priority 2018, published 2023).
Like-named read-outs stand apart in the source and are kept apart here.

Columns and labels:
[1] = system: β-catenin-TCF-mediated reporter transcription activity in Colo 205 cells; experiment: Colo 205 reporter assay (TCF/LEF luciferase); assay type: cell-based; conditions: Colo 205 TCF/LEF luciferase reporter, five hours after addition of compound, read-out: TCF reporter Colo205 IC50
Procedure, shortened: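 Luciferase signal from a TCF/LEF-driven reporter, stably integrated in Colo 205 colon cancer cells, was measured 5 h after compound addition.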

[2] = biological target: HEK293 membranes over-expressing WFS-1 (Homo sapiens (Human), UniProt O76024); experiment: Radioligand displacement assay (tritiated Compound 136 probe); assay type: binding; conditions: displacement of tritiated Compound 136
HEK293 membranes over-expressing WFS-1, sequence (O76024 whole entry): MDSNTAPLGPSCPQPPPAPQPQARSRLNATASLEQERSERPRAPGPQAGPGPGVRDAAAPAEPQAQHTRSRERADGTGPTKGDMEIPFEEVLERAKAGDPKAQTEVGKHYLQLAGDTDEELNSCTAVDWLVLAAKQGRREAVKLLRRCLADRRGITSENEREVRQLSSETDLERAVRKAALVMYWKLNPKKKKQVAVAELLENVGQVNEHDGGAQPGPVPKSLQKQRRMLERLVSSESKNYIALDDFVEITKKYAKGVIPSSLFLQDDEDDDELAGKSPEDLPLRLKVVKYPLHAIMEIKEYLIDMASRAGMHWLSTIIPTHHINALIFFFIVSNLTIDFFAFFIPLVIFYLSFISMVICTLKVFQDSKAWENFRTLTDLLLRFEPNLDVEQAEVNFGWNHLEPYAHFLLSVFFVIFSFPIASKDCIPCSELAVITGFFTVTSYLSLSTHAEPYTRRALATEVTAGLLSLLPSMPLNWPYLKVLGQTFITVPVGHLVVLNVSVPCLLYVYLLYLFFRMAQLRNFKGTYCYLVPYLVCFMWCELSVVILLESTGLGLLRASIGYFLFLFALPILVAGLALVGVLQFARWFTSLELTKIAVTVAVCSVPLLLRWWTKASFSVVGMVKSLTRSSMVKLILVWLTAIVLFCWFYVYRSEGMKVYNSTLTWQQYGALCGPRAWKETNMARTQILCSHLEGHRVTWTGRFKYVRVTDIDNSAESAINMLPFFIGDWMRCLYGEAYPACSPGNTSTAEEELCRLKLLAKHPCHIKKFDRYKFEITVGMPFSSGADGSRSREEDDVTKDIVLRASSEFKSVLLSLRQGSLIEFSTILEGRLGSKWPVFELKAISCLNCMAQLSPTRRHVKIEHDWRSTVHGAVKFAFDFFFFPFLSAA
Method: Cell pellets were re-suspended in 15 times packed cellular volume in 4° C. hypotonic lysis buffer (10 mM HEPES, pH 7.5 containing 1×Protease inhibitor, 0.5 mM EDTA and 2 mM DTT). Re-suspended cells were homogenized with 6-8 strokes in a dounce homogenizer kept on ice. Lysates were centrifuged at 500×G for 15 minutes at 4° C. without brake to decelerate rotor. Following centrifugation, remove the supernatant to a fresh tube and place on ice (Supernatant 1). Repeat the above steps on the lysed cell pellet using 0.5 the original volume of hypotonic lysis buffer and remove the 500× G supernatant (Supernatant 2) and combine with Supernatant 1. Transfer the combined supernatants to a 45-Ti ultracentrifuge tube and centrifuge at 100,000× G for 30 minutes. Following ultracentrifugation, carefully remove the supernatant and discard. Resuspend the 100,000× G pellet in cold resuspension buffer (10 mM HEPES, pH 7.5, 300 mM NaCl containing 1× Protease inhibitor, 1× EDTA and 2 mM DTT). Centrifuge sample at 500× G for 10 minutes with no brake and remove any cloudy, flocculent material. Resuspend pellet in resuspension buffer to approximately 2 mg/mL of protein concentration for use in radioligand binding assay and immunoblotting.
The binding affinities of compounds were determined by measuring the competitive displacement of a tritiated Compound 136 probe from purified HEK293 membranes over-expressing WFS-1. The data for the radioligand displacement assay are summarized in Table 47: A<0.06 μM; 0.06 μM≤B<0.6 μM; 0.6 μM≤C<3.0 μM; D≥3.0 μM.
The probe Kd was determined by titrating tritiated probe under the standard assay conditions plus and minus excess unlabeled probe and fitting the resulting data to a “One site—Total and nonspecific binding” model in Graphpad Prism, version 6.0, San Diego, CA, US. Initially, 0.25 μl of compound dissolved in DMSO at varying concentrations was dispensed to a 384 well plate. Membrane and probe were both prepared at 2× their final concentration in 1× assay buffer as described above. 25 μL of membrane was added to the wells and incubated for 10 minutes. 25 μL of diluted probe was then added to the wells. The assay was incubated for 90 minutes at room temperature. The entire assay volume was then transferred to Millipore GF/B 384-well plates pretreated with 15 μL 0.5% PEI. The filter plates were washed 3× with 75 μL 25 mM TRIS, ph7.5, 0.1% BSA and then dried overnight. Following addition of 45 μL UltimaGold scintillant, the samples were counted in a Perkin Elmer Topcount. The radioactivity remaining is a measure of bound probe. From the bound probe vs concentration of compound titration curve, the IC50 is determined by fitting the data to a standard 3 parameter IC50 model using either Graphpad Prism, version 6.0, San Diego, CA, US, or using GeneData Analyzer, Basel, Switzerland.

Colo-205 cells = experiment: Calcium flux assay (FLIPR Calcium 5); assay type: cell-based; conditions: Homo sapiens, COLO 205, 0.6 h, FLIPR Calcium 5, measured over 36 minutes
Method: Compounds described herein induced ER stress by causing intracellular calcium flux. Calcium flux was measured in Colo-205 cells using the FLTPR® Calcium 5 Assay Kit according to manufacter's protocol (Molecular Devices, Cat. #R8186) on a FLIPR3 system (Molecular Devices). Calcium flux is measured over 36 minutes. The Colo-205 calcium flux assay data are summarized in Table 47: A<0.6 μM; 0.6 μM≤B<2.0 μM; 2.0 μM≤C<10.0 μM; D≥10.0 μM.

| IC50 ([1]; Homo sapiens, COLO 205, 5 h) | IC50 [2] | EC50 (Colo-205 cells) | IC50 [1] | Compound |
| --- | --- | --- | --- | --- |
| ≥ 5000 nM | ≥ 3000 nM | ≥ 10000 nM | – | Cc1nc(N[C@@H](C)c2cnn(Cc3ccc(C(F)(F)F)nc3)c2)nc2c1NC(=O)[C@H](C)N2C [Compound 216, (7S)-4,7,8-Trimethyl-2-(((S)-1-(1-((6-(trifluoromethyl)pyridin-3-yl)methyl)-1H-pyrazol-4-yl)ethyl)amino)-7,8-dihydropteridin-6(5H)-one] |
| < 300 nM | 60 to 600 nM | – | – | Cc1nc(N[C@H]2C[C@H](Oc3cc(F)c(F)c(F)c3)C2)nc2c1NC(=O)[C@H](CO)N2C [Compound 677, (S)-7-(hydroxymethyl)-4,8-dimethyl-2-((trans-3-(3,4,5-trifluorophenoxy)cyclobutyl)amino)-7,8-dihydropteridin-6(5H)-one] |
| < 300 nM | < 60 nM | < 600 nM | – | CO[C@H](C)[C@H]1C(=O)Nc2c(C)nc(N[C@H]3C[C@H](Oc4ccc(C(F)(F)F)nc4)C3)nc2N1C [Compound 684, (S)-7-((R)-1-methoxyethyl)-4,8-dimethyl-2-((trans-3-((6-(trifluoromethyl)pyridin-3-yl)oxy)cyclobutyl)amino)-7,8-dihydropteridin-6(5H)-one] |
| < 300 nM | < 60 nM | < 600 nM | – | Cc1nc(N[C@H]2C[C@H](Oc3ccc(C(F)(F)F)nc3)C2)nc2c1NC(=O)[C@H](C(C)C)N2C [Compound 685, (S)-7-isopropyl-4,8-dimethyl-2-((trans-3-((6-(trifluoromethyl)pyridin-3-yl)oxy)cyclobutyl)amino)-7,8-dihydropteridin-6(5H)-one] |
| < 300 nM | < 60 nM | < 600 nM | – | CC[C@H]1C(=O)Nc2c(C)nc(N[C@H]3C[C@H](Oc4ccc(C(F)(F)F)nc4)C3)nc2N1C [Compound 686, (S)-7-ethyl-4,8-dimethyl-2-((trans-3-((6-(trifluoromethyl)pyridin-3-yl)oxy)cyclobutyl)amino)-7,8-dihydropteridin-6(5H)-one] |
| < 300 nM | < 60 nM | < 600 nM | – | Cc1nc(N[C@H]2C[C@@H](CNc3cnc(C(F)(F)F)cn3)C2)nc2c1NC(=O)[C@H](C(C)C)N2C [Compound 711, (S)-7-isopropyl-4,8-dimethyl-2-((cis-3-(((5-(trifluoromethyl)pyrazin-2-yl)amino)methyl)cyclobutyl)amino)-7,8-dihydropteridin-6(5H)-one] |
| < 300 nM | < 60 nM | 600 to 2000 nM | – | Cc1nc(N[C@H]2C[C@@H](Nc3ccc(C#N)cn3)C2)nc2c1NC(=O)[C@H](C(C)C)N2C [Compound 716, 6-((cis-3-(((S)-7-isopropyl-4,8-dimethyl-6-oxo-5,6,7,8-tetrahydropteridin-2-yl)amino)cyclobutyl)amino)nicotinonitrile] |
| 1000 to 5000 nM | 60 to 600 nM | 2000 to 10000 nM | – | Cc1nc(N[C@H]2C[C@@H](Nc3ncc(C#N)cn3)C2)nc2c1NC(=O)[C@H](C(C)C)N2C [Compound 717, 2-((cis-3-(((S)-7-isopropyl-4,8-dimethyl-6-oxo-5,6,7,8-tetrahydropteridin-2-yl)amino)cyclobutyl)amino)pyrimidine-5-carbonitrile] |
| – | – | – | < 300 nM | (7R)-5,7,8-triethyl-7-methyl-2-(((1-(3,4,5-trifluorobenzyl)-1H-pyrazol-4-yl)methyl)amino)-7,8-dihydropteridin-6(5H)-one [Compound 235] |
| – | – | – | < 300 nM | (7S)-4,5,7,8-tetramethyl-2-((trans-3-(3,4,5-trifluorophenoxy)cyclopentyl)amino)-7,8-dihydropteridin-6(5H)-one [Compound 269] |
| – | – | – | < 300 nM | (7S)-7-(2-hydroxyethyl)-4-methyl-2-(((1-((6-(trifluoromethyl)pyridin-3-yl)methyl)-1H-pyrazol-4-yl)methyl)amino)-7,8-dihydropteridin-6(5H)-one [Compound 440] |

| Compound | IC50 ([1]; Homo sapiens, COLO 205, 5 h) | IC50 [2] | EC50 (Colo-205 cells) | IC50 [1] |
| --- | --- | --- | --- | --- |
| (S)-7-((S)-1-(tert-butoxy)ethyl)-4,8-dimethyl-2-(((1-(3,4,5-trifluorobenzyl)-1H-pyrazol-4-yl)methyl)amino)-7,8-dihydropteridin-6(5H)-one [Compound 747] | – | – | – | 300 to 1000 nM |
